MIC_A data for 27 molecules are collected here from patent CN111517978A, “环己烯基-dl-天门冬氨酸衍生物及其制备方法、组合物与用途” (Zhongshan Wanhan Pharmaceutical Co ltd, priority 2020, dated 2020).

Holding throughout (type): cell-based
Details in all cases: component A (XP or YS) alone

For test [1], the system named is Serratia marcescens IFO 3736 (黏质沙雷氏菌IFO 3736). The test can be described thus: Antibacterial action (MIC, FICI) against Serratia marcescens IFO 3736 (Table 10).
For test [2], the system named is Propionibacterium acnes ATCC11828 (痤疮丙酸杆菌ATCC11828). The test can be described thus: Antibacterial action (MIC, FICI) against Propionibacterium acnes ATCC11828 (Table 21).
In test [3] the test system is Escherichia coli ATCC25922 (大肠杆菌ATCC25922). The experiment in a line: Antibacterial action (MIC, FICI) against Escherichia coli ATCC25922 (Table 7).
In test [4] the test system is Providencia stuartii 57 (斯氏普罗威登斯菌57). The experiment in a line: Antibacterial action (MIC, FICI) against Providencia stuartii 57 (Table 12).
Test [5] concerns Clostridium perfringens ATCC13124 (产气荚膜梭状芽孢杆菌ATCC13124).
Test [6] has as its system Streptococcus intermedius ATCC27335 (中间链球菌ATCC27335). The test can be described thus: Antibacterial action (MIC, FICI) against Streptococcus intermedius ATCC27335 (Table 20).
The subject of test [7] is Micrococcus lysodeikticus 2665 (溶壁微球菌2665). The experiment in a line: Antibacterial action (MIC, FICI) against Micrococcus lysodeikticus 2665 (Table 4).
Test [8] deals with Stenotrophomonas maltophilia NCTC 13637 (嗜麦芽窄食单胞菌NCTC 13637). The experiment in a line: Antibacterial action (MIC, FICI) against Stenotrophomonas maltophilia NCTC 13637 (Table 18).
Test [9] has as its system Klebsiella pneumoniae NCTC 9632 (肺炎克雷伯菌NCTC 9632). The test can be described thus: Antibacterial action (MIC, FICI) against Klebsiella pneumoniae NCTC 9632 (Table 9).
Test [10] concerns Shigella flexneri 2aEW-10 (福氏志贺氏菌2aEW-10). The test can be described thus: Antibacterial action (MIC, FICI) against Shigella flexneri 2aEW-10 (Table 15).

`CCOC(=O)C1=C[C@@H](O)[C@H](N)[C@@H](N)C1` [化合物14S, 乙基(3R,4R,5S)-4,5-二氨基-3-羟基环己-1-烯-1-羧酸酯]: the values for the MIC_A in test [1] and in [2] were 1102 ng/mL and 701 ng/mL, respectively.

For the molecule `CCOC(=O)C1=C[C@@H](OC(CC)CC)[C@H](NC(C)=O)[C@@H](N)C1` [化合物4S, 乙基(3R,4R,5S)-4-乙酰氨基-5-氨基-3-(戊-3-基氧基)环己-1-烯-1-羧酸酯], the MIC_A in test [3] amounted to 456 ng/mL; in test [4] it was 581 ng/mL; in test [5] it was 762 ng/mL.

For the molecule `CCOC(=O)C1=C[C@@H](OC(CC)CC)[C@H](N)[C@@H](N)C1` [化合物12S, 乙基(3R,4R,5S)-4,5-二氨基-3-(戊-3-基氧基)环己-1-烯-1-羧酸酯], the MIC_A came out at 406 ng/mL in test [6], 1027 ng/mL in test [7] and 691 ng/mL in test [1].

In the case of `CCOC(=O)C1=C[C@H](OC(CC)CC)[C@H](NC(C)=O)[C@@H](NC(CC(=O)O)C(=O)O)C1` (mixture of isomers) [化合物6P, ((1S,5S,6R)-6-乙酰氨基-3-(乙氧基羰基)-5-(戊-3-基氧基)环己-3-烯-1-基)-DL-天门冬氨酸], the MIC_A in test [6] was 28 ng/mL; in test [7] it was 26 ng/mL; in test [1], 7 ng/mL; in test [8], 17 ng/mL.

Regarding `CCOC(=O)C1=C[C@@H](OC(CC)CC)[C@H](NC(C)=O)[C@@H](NC(CC(=O)O)C(=O)O)C1` (mixture of isomers) [化合物4P, ((1S,5R,6R)-6-乙酰氨基-3-(乙氧基羰基)-5-(戊-3-基氧基)环己-3-烯-1-基)-DL-天门冬氨酸], the results for the MIC_A in test [3], in test [4] and in test [5] were 17 ng/mL, 34 ng/mL and 36 ng/mL, respectively.

Consider `CCC(CC)O[C@H]1C=C(C(=O)O)C[C@@H](N)[C@@H]1N` [化合物16S, (3S,4S,5R)-4,5-二氨基-3-(戊-3-基氧基)环己-1-烯-1-羧酸], for which the MIC_A in [9] turned out to be 1179 ng/mL.

Consider `CCOC(=O)C1=C[C@@H](OC(CC)CC)[C@@H](NC(C)=O)[C@@H](NC(CC(=O)O)C(=O)O)C1` (mixture of isomers) [化合物8P, ((1S,5R,6S)-6-乙酰氨基-3-(乙氧基羰基)-5-(戊-3-基氧基)环己-3-烯-1-基)-DL-天门冬氨酸], for which the MIC_A is reported as 28 ng/mL in test [5] and 41 ng/mL in test [8].

Take `CCC(CC)O[C@@H]1C=C(C(=O)O)C[C@H](NC(CC(=O)O)C(=O)O)[C@H]1N` (mixture of isomers) [化合物11P, ((1S,5R,6R)-6-氨基-3-羧基-5-(戊-3-基氧基)环己-3-烯-1-基)-DL-天门冬氨酸]: the MIC_A in test [3] came to 7 ng/mL; in [4], 17 ng/mL; in [5] it was 22 ng/mL; in test [9], 22 ng/mL; in [8], 50 ng/mL.

Turning to `CCOC(=O)C1=C[C@@H](OC(CC)CC)[C@H](N)[C@@H](NC(CC(=O)O)C(=O)O)C1` (mixture of isomers) [化合物12P, ((1S,5R,6R)-6-氨基-3-(乙氧基羰基)-5-(戊-3-基氧基)环己-3-烯-1-基)-DL-天门冬氨酸], the MIC_A in test [6] is listed as 25 ng/mL; in test [7] it was 30 ng/mL; in test [1], 47 ng/mL.

As to `CCOC(=O)C1=C[C@H](OC(CC)CC)[C@@H](N)[C@H](NC(CC(=O)O)C(=O)O)C1` (mixture of isomers) [化合物17P, ((1R,5S,6S)-6-氨基-3-(乙氧基羰基)-5-(戊-3-基氧基)环己-3-烯-1-基)-DL-天门冬氨酸], the MIC_A in [3] was determined as 22 ng/mL; in test [10], 30 ng/mL; in test [5], 21 ng/mL; in [2] it was 27 ng/mL; in test [8], 16 ng/mL.

Regarding `CCC(CC)O[C@@H]1C=C(C(=O)O)C[C@H](NC(C)=O)[C@H]1NC(CC(=O)O)C(=O)O` (mixture of isomers) [化合物2P, ((1R,2R,6S)-6-乙酰氨基-4-羧基-2-(戊-3-基氧基)环己-3-烯-1-基)-DL-天门冬氨酸], the MIC_A in test [3] was 45 ng/mL; in test [10] it was 22 ng/mL; in test [6], 10 ng/mL; in test [8], 13 ng/mL.

Turning to `CCC(CC)O[C@@H]1C=C(C(=O)O)C[C@H](N)[C@H]1N` [化合物11S, (3R,4R,5S)-4,5-二氨基-3-(戊-3-基氧基)环己-1-烯-1-羧酸], the MIC_A is reported as 659 ng/mL in [3]; 1106 ng/mL in test [4]; 482 ng/mL in test [5]; 650 ng/mL in [9]; 774 ng/mL in test [8].

With `CCOC(=O)C1=C[C@@H](OC(C)CC)[C@H](NC(C)=O)[C@@H](NC(CC(=O)O)C(=O)O)C1` (mixture of isomers) [化合物19P, ((1S,5R,6R)-6-乙酰氨基-5-(sec-丁氧基)-3-(乙氧基羰基)环己-3-烯-1-基)-DL-天门冬氨酸], the MIC_A in [6] is listed as 11 ng/mL; in [4] it was 17 ng/mL; in test [1] it was 13 ng/mL.

For `CCOC(=O)C1=C[C@@H](OC(CC)CC)[C@H](NC(C)=O)[C@@H](N)C1` [化合物1S, 乙基(3R,4R,5S)-4-乙酰氨基-5-氨基-3-(戊-3-基氧基)环己-1-烯-1-羧酸酯], the MIC_A in test [4] turned out to be 1178 ng/mL; in test [7] it was 300 ng/mL; in test [5] it was 504 ng/mL; in test [2], 633 ng/mL.

On to `CCC(CC)O[C@H]1C=C(C(=O)O)C[C@@H](NC(CC(=O)O)C(=O)O)[C@@H]1N` (mixture of isomers) [化合物16P, ((1R,5S,6S)-6-氨基-3-羧基-5-(戊-3-基氧基)环己-3-烯-1-基)-DL-天门冬氨酸], for which, in [9], the MIC_A is given as 15 ng/mL.

For `CCOC(=O)C1=C[C@@H](OC(C)C)[C@H](NC(C)=O)[C@@H](N)C1` [化合物20S, 乙基(3R,4R,5S)-4-乙酰氨基-5-氨基-3-异丙氧基环己-1-烯-1-羧酸酯], the figures for the MIC_A in [3], in [2] and in test [8] were 704 ng/mL, 771 ng/mL and 1079 ng/mL, respectively.

On to `CCC(CC)O[C@@H]1C=C(C(=O)O)C[C@H](NC(C)=O)[C@H]1N` [化合物2S, (3R,4R,5S)-5-乙酰氨基-4-氨基-3-(戊-3-基氧基)环己-1-烯-1-羧酸], for which the MIC_A is on record as 720 ng/mL in [3], 345 ng/mL in [10], 493 ng/mL in [6] and 879 ng/mL in [8].

Consider `CCOC(=O)C1=C[C@@H](OC(C)C)[C@H](NC(C)=O)[C@@H](NC(CC(=O)O)C(=O)O)C1` (mixture of isomers) [化合物20P, ((1S,5R,6R)-6-乙酰氨基-3-(乙氧基羰基)-5-异丙氧基环己-3-烯-1-基)-DL-天门冬氨酸], for which the MIC_A in [3] came out at 19 ng/mL; in test [2], 18 ng/mL; in test [8] it was 36 ng/mL.

Consider `CCOC(=O)C1=C[C@H](OC(CC)CC)[C@@H](NC(C)=O)[C@H](N)C1` [化合物7S, 乙基(3S,4S,5R)-4-乙酰氨基-5-氨基-3-(戊-3-基氧基)环己-1-烯-1-羧酸酯], for which the MIC_A in test [3] amounted to 484 ng/mL; in [10] it was 1145 ng/mL; in test [9], 376 ng/mL; in test [2], 461 ng/mL.

Turning to `CCOC(=O)C1=C[C@@H](OC(CC)CC)[C@@H](NC(C)=O)[C@@H](N)C1` [化合物8S, 乙基(3R,4S,5S)-4-乙酰氨基-5-氨基-3-(戊-3-基氧基)环己-1-烯-1-羧酸酯], the MIC_A was 483 ng/mL in [5] and 800 ng/mL in test [8].

As for `CCOC(=O)C1=C[C@H](OC(CC)CC)[C@@H](NC(C)=O)[C@H](NC(CC(=O)O)C(=O)O)C1` (mixture of isomers) [化合物7P, ((1R,5S,6S)-6-乙酰氨基-3-(乙氧基羰基)-5-(戊-3-基氧基)环己-3-烯-1-基)-DL-天门冬氨酸], the MIC_A is 27 ng/mL in test [3], 60 ng/mL in test [10], 25 ng/mL in test [9] and 10 ng/mL in [2].

For the molecule `CCOC(=O)C1=C[C@@H](O)[C@H](NC(C)=O)[C@@H](NC(CC(=O)O)C(=O)O)C1` (mixture of isomers) [化合物13P, ((1S,5R,6R)-6-乙酰氨基-3-(乙氧基羰基)-5-羟基环己-3-烯-1-基)-DL-天门冬氨酸], the MIC_A was 22 ng/mL in test [6], 54 ng/mL in test [4], 27 ng/mL in test [7] and 55 ng/mL in [9].

Take `CCOC(=O)C1=C[C@@H](OC(C)CC)[C@H](NC(C)=O)[C@@H](N)C1` (stereo partly drawn) [化合物19S, 乙基(3R,4R,5S)-4-乙酰氨基-5-氨基-3-(sec-丁氧基)环己-1-烯-1-羧酸酯]: the MIC_A in test [6] came to 310 ng/mL; in [4] it was 823 ng/mL; in [1] it was 1016 ng/mL.

Turning to `CCOC(=O)C1=C[C@H](OC(CC)CC)[C@H](NC(C)=O)[C@@H](N)C1` [化合物6S, 乙基(3S,4R,5S)-4-乙酰氨基-5-氨基-3-(戊-3-基氧基)环己-1-烯-1-羧酸酯], the MIC_A in [6] is on record as 521 ng/mL; in test [7], 556 ng/mL; in test [1] it was 445 ng/mL; in [8], 473 ng/mL.

With `CCOC(=O)C1=C[C@@H](O)[C@H](N)[C@@H](NC(CC(=O)O)C(=O)O)C1` (mixture of isomers) [化合物14P, ((1S,5R,6R)-6-氨基-3-(乙氧基羰基)-5-羟基环己-3-烯-1-基)-DL-天门冬氨酸], the MIC_A in [1] is recorded as 46 ng/mL; in [2] it was 18 ng/mL.

Take `CCOC(=O)C1=C[C@@H](OC(CC)CC)[C@H](NC(C)=O)[C@@H](NC(CC(=O)O)C(=O)O)C1` (mixture of isomers) [化合物1P, ((1S,5R,6R)-6-乙酰氨基-3-(乙氧基羰基)-5-(戊-3-基氧基)环己-3-烯-1-基)-DL-天门冬氨酸]: the MIC_A in [4] is reported as 13 ng/mL; in [7], 4 ng/mL; in test [5] it was 12 ng/mL; in test [2], 18 ng/mL.

Regarding `CCOC(=O)C1=C[C@@H](O)[C@H](NC(C)=O)[C@@H](N)C1` [化合物13S, 乙基(3R,4R,5S)-4-乙酰氨基-5-氨基-3-羟基环己-1-烯-1-羧酸酯], the MIC_A in [6] is given as 655 ng/mL; in test [4], 1021 ng/mL; in test [7], 914 ng/mL; in [9] it was 1081 ng/mL.
